# Article PMC6017838, “Synthesis and Anticandidal Activity of New Imidazole-Chalcones” (Molecules : A Journal of Synthetic Chemistry and Natural …, 2018)
# Legend:
# [1] = system: C. parapsilosis (ATCC 22019); assay: Anticandidal activity, EUCAST EDef 7.1 broth dilution with resazurin; assay type: cell-based; details: Lodderomyces parapsilosis, ATCC22019, RPMI pH 7, 24 h
# Protocol: (§1) Synthesized compounds (3a–3o) were evaluated for anticandidal activity against C. albicans (ATCC 24433), C. krusei (ATCC 6258), C. parapsilosis (ATCC 22019), and C. glabrata (ATCC 90030). MIC50 values were determined via fluorometric measurements, using resazurin solution [24, 25]. Ketoconazole and fluconazole were used as a standard drug in the activity test.
# (§2) Microbiological studies were performed according to the EUCAST definitive (EDef 7.1) method for C. albicans (ATCC 24433), C. krusei (ATCC 6258), C. parapsilosis (ATCC 22019), and C. glabrata (ATCC 90030). Fluconazole and ketoconazole were used as control drugs. Two MIC readings were carried out for each chemical agent. The yeasts were maintained in RPMI after overnight incubation at 37 °C. The inocula of test microorganisms was adjusted to match the turbidity of a MacFarland 0.5 standard tube as determined with a spectrophotometer, and the final inoculum size was 0.5–2.5 × 10^5 cfu/mL for the antifungal assay. Testing was carried out in RPMI at pH = 7, and the two-fold serial dilutions technique was applied. The last well on the microplates containing only inoculated broth was kept as a control, and the last well with no growth of microorganism was recorded to represent the MIC50 expressed in μg/mL. For the antifungal assays, the compounds were dissolved in DMSO. Further dilutions of the compounds and standard drugs in the test medium were prepared at the required quantities of 800, 400, 200, 100, 50, 25, 12.5, 6.25, 3.125, 1.5625, and 0.78 μg/mL concentrations RPMI. The completed plates were incubated for 24 h. At the end of the incubation, resazurin (20 µg/mL) was added into each well to control the growth in the wells. Completed plates were incubated for 2 h. MIC50 values were determined using a microplate reader at […].
# C. glabrata (ATCC 90030) = assay: as above; assay type: cell-based; details: Nakaseomyces glabratus, ATCC90030, RPMI pH 7, 24 h
# Protocol: as §1, §2
# C. albicans (ATCC 24433) = assay: as above; assay type: cell-based; details: Candida albicans, ATCC24433, RPMI pH 7, 24 h
# Protocol: as §1, §2
# C. krusei (ATCC 6258) = assay: as above; assay type: cell-based; details: Pichia kudriavzevii, ATCC6258, RPMI pH 7, 24 h
# Protocol: as §1, §2
# [2] = system: ergosterol biosynthesis in C. krusei; assay: Quantification of ergosterol level by LC-MS-MS; assay type: cell-based; details: Pichia kudriavzevii, mean ± SD, quadruplicate
# From the text: Sterols are neutral lipids of eukaryotic cells, among which ergosterol is the main constituent of fungal membranes. Ergosterol has biological functions such as membrane fluidity, regulation, activity and distribution of integral membrane proteins, and control of the cell cycle. The critical role of sterols in maintenance of cell membranes make ergosterol and its biosynthetic pathway essential for fungal growth, and a primary target for antifungal drugs to treat fungal infections. From this point of view, we performed an LCMSMS (Shimadzu LCMS 8040, Kyoto, Japan) method for quantitative determination of ergosterol content of C. krusei as reported in our recent study. Compounds 3a–3d, displaying the best anticandidal activity and low cytotoxic effect, and reference agents ketoconazole and fluconazole were tested at concentrations of 0.78–3.12 µg/mL. Ergosterol standard (Product No.: 45480, Sigma-Aldrich, Darmstadt, Germany) was used for the quantification of ergostrerol in samples, which were treated with reference agents and Compounds 3a–3d. Ergosterol quantity of the negative control was considered as 100%. Quadruplicate analyses were performed for all concentrations and the obtained data were expressed as mean ± standard deviation (SD) (Table 2).
# Extraction of total sterols from C. krusei was performed as recorded by Breivik and Owades. Quantification of ergosterol level in this extract was carried out in accordance with our recently described method.
# [3] = system: NIH/3T3 mouse embryonic fibroblast cell line; assay: MTT cytotoxicity test; assay type: cell-based; details: NIH3T3, cytotoxic activity, NIH/3T3 cell line
# Protocol: The main cause of failure in all stages of the new drug development process is toxicity. Early identification of toxicities of drug candidates is very important in terms of drug development studies. […] Cytotoxicity of selected compounds (3a–3d), displaying strong anticandidal activity and good predicted pharmacokinetics, was determined against NIH/3T3 mouse embryonic fibroblast cell lines (ATCC CRL1658).
# Cytotoxicity was tested using the NIH/3T3 mouse embryonic fibroblast cell line (ATCC® CRL-1658™, London, UK). NIH/3T3 cells were incubated according to the supplier’s recommendations. NIH/3T3 cells were seeded at 1 × 10^4 cells into each well of the 96-well plates. The MTT assay was performed as previously described. The compounds were tested between 800 and 0.78 µg/mL concentrations. Inhibition % was calculated for each concentration according to the formula below, and IC50 values were determined by plotting a dose–response curve of inhibition % versus compound concentrations tested.
# % inhibition = 100 − (mean sample × 100/mean solvent).
SMILES,melting point [°C],MIC50 [1] [µg/mL],MIC50 (C. glabrata (ATCC 90030)) [µg/mL],MIC50 (C. albicans (ATCC 24433)) [µg/mL],MIC50 (C. krusei (ATCC 6258)) [µg/mL],inhibition at 0.78 µg/mL [2] [%],inhibition at 1.56 µg/mL [2] [%],inhibition at 3.12 µg/mL [2] [%],IC50 [3] [µg/mL]
"CC1CC(C)CN(c2ccc(C=CC(=O)c3ccc(-n4ccnc4)cc3)cc2)C1 (stereo not drawn) [Compound 3j, 1-(4-(1H-Imidazol-1-yl)phenyl)-3-(4-(3,5-dimethylpiperidin-1-yl)phenyl)prop-2-en-1-one]",160 to 161,25,12.5,50,25,,,,
"CN(C)CCN1CCN(c2ccc(C=CC(=O)c3ccc(-n4ccnc4)cc3)cc2)CC1 [Compound 3n, 1-(4-(1H-Imidazol-1-yl)phenyl)-3-(4-(4-(2-(dimethylamino)ethyl)piperazin-1-yl)phenyl)prop-2-en-1-one]",146 to 149,12.5,12.5,50,12.5,,,,
"CN(C)CCCN1CCN(c2ccc(C=CC(=O)c3ccc(-n4ccnc4)cc3)cc2)CC1 [Compound 3o, 1-(4-(1H-Imidazol-1-yl)phenyl)-3-(4-(4-(3-(dimethylamino)propyl)piperazin-1-yl)phenyl)prop-2-en-1-one]",138 to 141,12.5,12.5,50,12.5,,,,
"CCN1CCN(c2ccc(C=CC(=O)c3ccc(-n4ccnc4)cc3)cc2)CC1 [Compound 3m, 1-(4-(1H-Imidazol-1-yl)phenyl)-3-(4-(4-ethylpiperazin-1-yl)phenyl)prop-2-en-1-one]",188 to 189,25,12.5,50,12.5,,,,
"O=C(C=Cc1ccc(N2CCC(Cc3ccccc3)CC2)cc1)c1ccc(-n2ccnc2)cc1 [Compound 3k, 1-(4-(1H-Imidazol-1-yl)phenyl)-3-(4-(4-benzylpiperidin-1-yl)phenyl)prop-2-en-1-one]",178 to 180,12.5,25,50,25,,,,
"CC1CCCN(c2ccc(C=CC(=O)c3ccc(-n4ccnc4)cc3)cc2)C1 (stereo not drawn) [Compound 3h, 1-(4-(1H-Imidazol-1-yl)phenyl)-3-(4-(3-methylpiperidin-1-yl)phenyl)prop-2-en-1-one]",163 to 165,12.5,12.5,50,25,,,,
"CC1CCN(c2ccc(C=CC(=O)c3ccc(-n4ccnc4)cc3)cc2)CC1 [Compound 3i, 1-(4-(1H-Imidazol-1-yl)phenyl)-3-(4-(4-methylpiperidin-1-yl)phenyl)prop-2-en-1-one]",189 to 191,12.5,12.5,50,12.5,,,,
"O=C(C=Cc1ccc(N2CCCC2)cc1)c1ccc(-n2ccnc2)cc1 [Compound 3e, 1-(4-(1H-Imidazol-1-yl)phenyl)-3-(4-(pyrrolidin-1-yl)phenyl)prop-2-en-1-one]",186 to 188,12.5,12.5,50,12.5,,,,
"O=C(C=Cc1ccc(N2CCOCC2)cc1)c1ccc(-n2ccnc2)cc1 [Compound 3f, 1-(4-(1H-Imidazol-1-yl)phenyl)-3-(4-morpholinophenyl)prop-2-en-1-one]",214 to 215,12.5,12.5,50,12.5,,,,

# Further lines, with some results ahead:
melting point [°C],MIC50 [1] [µg/mL],MIC50 (C. glabrata (ATCC 90030)) [µg/mL],MIC50 (C. albicans (ATCC 24433)) [µg/mL],MIC50 (C. krusei (ATCC 6258)) [µg/mL],SMILES,inhibition at 0.78 µg/mL [2] [%],inhibition at 1.56 µg/mL [2] [%],inhibition at 3.12 µg/mL [2] [%],IC50 [3] [µg/mL]
198 to 199,12.5,12.5,50,25,"O=C(C=Cc1ccc(N2CCCCC2)cc1)c1ccc(-n2ccnc2)cc1 [Compound 3g, 1-(4-(1H-Imidazol-1-yl)phenyl)-3-(4-(piperidin-1-yl)phenyl)prop-2-en-1-one]",,,,
,0.78,1.56,0.78,1.56,"OC(Cn1cncn1)(Cn1cncn1)c1ccc(F)cc1F [Fluconazole, reference compound]",61.7 ± 1.7,70.1 ± 3.22,82.1 ± 4.45,
205 to 207,12.5,12.5,50,25,"CN1CCN(c2ccc(C=CC(=O)c3ccc(-n4ccnc4)cc3)cc2)CC1 [Compound 3l, 1-(4-(1H-Imidazol-1-yl)phenyl)-3-(4-(4-methylpiperazin-1-yl)phenyl)prop-2-en-1-one]",,,,
146 to 148,0.78,3.12,3.12,0.78,"Cc1ccc(Oc2ccc(C=CC(=O)c3ccc(-n4ccnc4)cc3)cc2)cc1 [Compound 3a, 1-(4-(1H-Imidazol-1-yl)phenyl)-3-(4-(p-tolyloxy)phenyl)prop-2-en-1-one]",66.2 ± 2.23,79.5 ± 3.16,86.5 ± 4.77,> 500
168 to 169,0.78,3.12,3.12,0.78,"Cc1ccc(Sc2ccc(C=CC(=O)c3ccc(-n4ccnc4)cc3)cc2)cc1 [Compound 3b, 1-(4-(1H-Imidazol-1-yl)phenyl)-3-(4-(p-tolylthio)phenyl)prop-2-en-1-one]",68.6 ± 1.98,81.6 ± 4.07,83.5 ± 3.18,> 500
177 to 179,3.12,0.78,1.56,1.56,"COc1ccc(Sc2ccc(C=CC(=O)c3ccc(-n4ccnc4)cc3)cc2)cc1 [Compound 3d, 1-(4-(1H-Imidazol-1-yl)phenyl)-3-(4-((4-methoxyphenyl)thio)phenyl)prop-2-en-1-one]",52.5 ± 1.83,67.1 ± 2.7,74.1 ± 2.21,388 ± 20.2
,1.56,1.56,0.78,1.56,"CC(=O)N1CCN(c2ccc(OCC3COC(Cn4ccnc4)(c4ccc(Cl)cc4Cl)O3)cc2)CC1 (stereo not drawn) [Ketoconazole, reference compound]",61 ± 2.94,73.1 ± 4.16,84.6 ± 3.01,
168 to 170,0.78,0.78,1.56,0.78,"COc1ccc(Oc2ccc(C=CC(=O)c3ccc(-n4ccnc4)cc3)cc2)cc1 [Compound 3c, 1-(4-(1H-Imidazol-1-yl)phenyl)-3-(4-(4-methoxyphenoxy)phenyl)prop-2-en-1-one]",71.1 ± 4.9,78.2 ± 2.7,84.3 ± 4.65,436 ± 1.03
